Data reported in patent US20100298141A1, “SUBSTITUTED PYRIDINE N-OXIDE HERBICIDES” (E. I. DU PONT DE NEMOURS AND COMPANY, priority 2007, published 2010).

Experiments:
[1] = tested on: morningglory; experiment: Test A pre-/postemergence greenhouse test; format: in vivo, Ipomoea spp.; conditions: for Morningglory plant response rating: 0 to 100 scale; for Plant response rating, Morningglory: 0 to 100 scale where 0 is no effect and 100 is complete control
How it was run: (§1)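 Pre: directed soil spray on seeded loam/sand. Post: foliar spray, plants 2–10 cm, 1–2 leaf stage, applied concurrently. Vehicle: non-phytotoxic solvent + surfactant. Greenhouse ~10 d; visual injury rating vs untreated controls.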

[2] = tested on: corn; experiment: Test A pre-/postemergence greenhouse test; format: in vivo, Zea mays; conditions: for Corn plant response rating: 0 to 100 scale; for Plant response rating, Corn: 0 to 100 scale where 0 is no effect and 100 is complete control
How it was run: as §1

[3] = tested on: crabgrass; experiment: Test A pre-/postemergence greenhouse test; format: in vivo, Digitaria sanguinalis; conditions: for Crabgrass, Large plant response rating: 0 to 100 scale; for Plant response rating, Crabgrass, Large: 0 to 100 scale where 0 is no effect and 100 is complete control
How it was run: as §1

[4] = tested on: duck salad; experiment: Test C flooded paddy test; format: in vivo, Heteranthera limosa; conditions: Flood
How it was run: (§2)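 Test compounds are applied straight into paddy water held 3 cm above the soil surface, with that flood maintained for the whole test. After 13 to 15 days in the greenhouse, each species is scored visually relative to controls.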

[5] = tested on: barnyardgrass; experiment: Test A pre-/postemergence greenhouse test; format: in vivo, Echinochloa crus-galli; conditions: for Barnyardgrass plant response rating: 0 to 100 scale; for Plant response rating, Barnyardgrass: 0 to 100 scale where 0 is no effect and 100 is complete control
How it was run: as §1

[6] = tested on: velvetleaf; experiment: Test A pre-/postemergence greenhouse test; format: in vivo, Abutilon theophrasti; conditions: for Velvetleaf plant response rating: 0 to 100 scale; for Plant response rating, Velvetleaf: 0 to 100 scale where 0 is no effect and 100 is complete control
How it was run: as §1

[7] = tested on: barnyardgrass; experiment: Test C flooded paddy test; format: in vivo, Echinochloa crus-galli; conditions: Flood
How it was run: as §2

[8] = tested on: giant foxtail; experiment: Test A pre-/postemergence greenhouse test; format: in vivo, Setaria faberi; conditions: for Foxtail, Giant plant response rating: 0 to 100 scale; for Plant response rating, Foxtail, Giant: 0 to 100 scale where 0 is no effect and 100 is complete control
How it was run: as §1

[9] = tested on: redroot pigweed; experiment: Test A pre-/postemergence greenhouse test; format: in vivo, Amaranthus retroflexus; conditions: for Pigweed plant response rating: 0 to 100 scale; for Plant response rating, Pigweed: 0 to 100 scale where 0 is no effect and 100 is complete control
How it was run: as §1

[10] = tested on: rice; experiment: Test C flooded paddy test; format: in vivo, Oryza sativa; conditions: Flood
How it was run: as §2

[11] = tested on: wheat; experiment: Test A pre-/postemergence greenhouse test; format: in vivo, Triticum aestivum; conditions: for Wheat plant response rating: 0 to 100 scale; for Plant response rating, Wheat: 0 to 100 scale where 0 is no effect and 100 is complete control
How it was run: as §1

[12] = tested on: umbrella sedge; experiment: Test C flooded paddy test; format: in vivo, Cyperus difformis; conditions: Flood
How it was run: as §2

[13] = Postemergence, 125 g ai/ha, 0 is no effect, 100 is complete control
[14] = Postemergence, 500 g ai/ha, 0 is no effect, 100 is complete control
[15] = Preemergence, 125 g ai/ha, 0 no effect, 100 complete control
[16] = 31 g ai/ha, scale 0 to 100 (0 no effect, 100 complete control)
[17] = 62 g ai/ha, scale 0 to 100, 0 no effect, 100 complete control, 13 to 15 days
[18] = 125 g ai/ha, scale 0 to 100, 0 no effect, 100 complete control, 13 to 15 days
[19] = 250 g ai/ha, scale 0 to 100 (0 no effect, 100 complete control)
[20] = 250 g ai/ha, scale 0 to 100, 0 no effect, 100 complete control, 13 to 15 days

Cn1nc(C(F)(F)F)c(C(Cl)S(=O)(=O)c2ccc(Cl)c[n+]2[O-])c1Cl (racemic) [Compound 21]
Morningglory plant response rating [1, 13]: 0 | Morningglory plant response rating [1, 14]: 0 | Plant response rating, Morningglory ([1]; Preemergence, 500 g ai/ha): 0 | Corn plant response rating [2, 13]: 0 | Corn plant response rating [2, 14]: 0 | Corn plant response rating [2, 15]: 0 | Plant response rating, Corn ([2]; Preemergence, 500 g ai/ha): 0 | Crabgrass, Large plant response rating [3, 13]: 20 | Crabgrass, Large plant response rating [3, 14]: 40 | Crabgrass, Large plant response rating [3, 15]: 60 | Plant response rating, Crabgrass, Large ([3]; Preemergence, 500 g ai/ha): 80 | Plant response rating, Ducksalad [4, 16]: 0 | Plant response rating, Ducksalad [4, 17]: 0 | Plant response rating, Ducksalad [4, 18]: 0 | Plant response rating, Ducksalad [4, 19]: 90 | Barnyardgrass plant response rating [5, 13]: 0 | Barnyardgrass plant response rating [5, 14]: 30 | Barnyardgrass plant response rating [5, 15]: 60 | Plant response rating, Barnyardgrass ([5]; Preemergence, 500 g ai/ha): 90 | Velvetleaf plant response rating [6, 13]: 0 | Velvetleaf plant response rating [6, 14]: 0 | Velvetleaf plant response rating [6, 15]: 0 | Plant response rating, Velvetleaf ([6]; Preemergence, 500 g ai/ha): 0 | Plant response rating, Barnyardgrass [7, 16]: 0 | Plant response rating, Barnyardgrass [7, 17]: 0 | Plant response rating, Barnyardgrass [7, 18]: 0 | Plant response rating, Barnyardgrass [7, 19]: 20 | Foxtail, Giant plant response rating [8, 13]: 0 | Foxtail, Giant plant response rating [8, 14]: 40 | Foxtail, Giant plant response rating [8, 15]: 80 | Plant response rating, Foxtail, Giant ([8]; Preemergence, 500 g ai/ha): 90 | Pigweed plant response rating [9, 13]: 0 | Pigweed plant response rating [9, 14]: 0 | Pigweed plant response rating [9, 15]: 40 | Plant response rating, Rice [10, 16]: 0 | Plant response rating, Rice [10, 17]: 0 | Plant response rating, Rice [10, 18]: 0 | Plant response rating, Rice [10, 19]: 0 | Wheat plant response rating [11, 13]: 0 | Wheat plant response rating [11, 14]: 0 | Wheat plant response rating [11, 15]: 0 | Plant response rating, Wheat ([11]; Preemergence, 500 g ai/ha): 0 | Plant response rating, Sedge, Umbrella [12, 16]: 0 | Plant response rating, Sedge, Umbrella [12, 17]: 0 | Plant response rating, Sedge, Umbrella [12, 18]: 40 | Plant response rating, Sedge, Umbrella [12, 20]: 90

Cc1cc[n+]([O-])c(S(=O)(=O)Cc2c(C(F)(F)F)nn(CC(F)(F)F)c2Cl)c1 [Compound 49]
Plant response rating, Morningglory ([1]; Postemergence, 125 g ai/ha): 0 | Morningglory plant response rating [1, 14]: 0 | Morningglory plant response rating [1, 15]: 30 | Plant response rating, Morningglory ([1]; Preemergence, 500 g ai/ha): 30 | Plant response rating, Corn ([2]; Postemergence, 125 g ai/ha): 0 | Corn plant response rating [2, 14]: 0 | Corn plant response rating [2, 15]: 0 | Plant response rating, Corn ([2]; Preemergence, 500 g ai/ha): 0 | Plant response rating, Crabgrass, Large ([3]; Postemergence, 125 g ai/ha): 30 | Crabgrass, Large plant response rating [3, 14]: 70 | Crabgrass, Large plant response rating [3, 15]: 70 | Plant response rating, Crabgrass, Large ([3]; Preemergence, 500 g ai/ha): 90 | Plant response rating, Ducksalad [4, 17]: 0 | Plant response rating, Ducksalad [4, 20]: 0 | Plant response rating, Barnyardgrass ([5]; Postemergence, 125 g ai/ha): 40 | Barnyardgrass plant response rating [5, 14]: 70 | Barnyardgrass plant response rating [5, 15]: 70 | Plant response rating, Barnyardgrass ([5]; Preemergence, 500 g ai/ha): 90 | Plant response rating, Velvetleaf ([6]; Postemergence, 125 g ai/ha): 20 | Velvetleaf plant response rating [6, 14]: 30 | Velvetleaf plant response rating [6, 15]: 0 | Plant response rating, Velvetleaf ([6]; Preemergence, 500 g ai/ha): 40 | Plant response rating, Barnyardgrass [7, 17]: 0 | Plant response rating, Barnyardgrass [7, 20]: 0 | Plant response rating, Foxtail, Giant ([8]; Postemergence, 125 g ai/ha): 40 | Foxtail, Giant plant response rating [8, 14]: 70 | Foxtail, Giant plant response rating [8, 15]: 80 | Plant response rating, Foxtail, Giant ([8]; Preemergence, 500 g ai/ha): 90 | Plant response rating, Pigweed ([9]; Postemergence, 125 g ai/ha): 0 | Pigweed plant response rating [9, 14]: 10 | Pigweed plant response rating [9, 15]: 80 | Plant response rating, Pigweed ([9]; Preemergence, 500 g ai/ha): 100 | Plant response rating, Rice [10, 17]: 0 | Plant response rating, Rice [10, 20]: 0 | Plant response rating, Wheat ([11]; Postemergence, 125 g ai/ha): 0 | Wheat plant response rating [11, 14]: 0 | Wheat plant response rating [11, 15]: 0 | Plant response rating, Wheat ([11]; Preemergence, 500 g ai/ha): 30 | Plant response rating, Sedge, Umbrella [12, 20]: 10
